We go through 25 compounds from patent US7696238B2, “Substituted benzo[d]isoxazol-3-yl amine compounds as analgesics” (Gruenenthal GmbH, priority 2005, dated 2010).

Assay [1] has as its target T1, KCNQ2/3 ion channel (KCNQ2/3-expressing CHO-K1 cells) (Homo sapiens, UniProt O43525+O43526).
T1 construct: expressed in transfected cells; host or cells: CHO-K1
The experiment in a line: Fluorescence assay (FLIPR instrument, membrane potential dye) for substances acting agonistically on the KCNQ2/3 ion channel. It is filed as cell-based. As to conditions: difference between maximum and minimum values, agonistic action detected from a value of −40 (and below). As to the method:
Pharmacological Test Methods I. Fluorescence Assay (FLIPR™ Instrument) for the Identification of Substances Acting Agonistically on the KCNQ2/3 Ion Channel
On the day before the experiment, KCNQ2/3-expressing CHO-K1 cells and CHO-K1 empty strain cells were seeded out onto coated poly-D-lysine black/clear plates (Falcon/BD Company; Order No.: 356640) in a concentration of 20000 cells/100 μl MEM alpha, 50 ml FCS, 5.5 ml PIS/G/solution (100×) and then incubated for 20-24 hours in an incubator (37° C., 5% CO2). On the day of the experiment the HBSS/hepes working solution and the FMP/HBSS/hepes mixture (Membrane Potential Assay Kit Red (FMP), bulk format Cat. No. R8123) were initially prepared according to the following protocol:
• 1000 ml 1× HBSS buffer (Hank's Balanced Salt Solution (1×) (Gibco; No. 14025)+10 ml hepes (1M stock solution, pH 7.4; hepes Na salt (Sigma Company; No. H7006-500 g; storage at 4° C. in a refrigerator) 2. 1× FMP/HBSS/hepes working solution: • 6 ml HBSS/hepes buffer are added to 5 ml of the FMP solution stored at −20° C. (preparation see below; thawing out at room temperature). The test substances (2 mM batch solution in 100% DMSO) contained in drug plates (Costar 96-well plates, catalogue No. 3795) were then diluted by adding HBSS/hepes buffer to a concentration of 30 μM (3× concentrated). The assay plates on which the cells grow were washed once with 200 μl HBSS/hepes (Cellwash Washer, Labsystems Company, catalogue No. 5161550) and the remaining volume was removed by tapping out the inverted plate twice. 100 μl of the FMP/HBSS/hepes working solution were then added in each case to the cell plates and incubated for 1 hour in the CO2 incubator at 37° C. and 5% CO2. The measurements are then carried out with a FLIPR III instrument from the Molecular Devices company (96-format, using the 540-590 nm band-pass filter in the #2 localization). In the experimental setup of the FLIPR software, filter #2 should be selected. The cell plates and the substance plates were fed alternately into the input stack. A signal test was carried out in each case with the cell plates before adding the substance. The test substances were then added via the pipetting unit of the FLIPR (added volume 50 μl, 3× concentrated, end concentration 10 μM) to the cavities of the cell plates in a total volume of 150 μl/well. The threshold data of the FLIPR program were as follows:
The pipette tips were washed after each pipetting procedure 3 times with 1% DMSO in water. The times of the measurement intervals after addition of the test substances are as follows:
Total measurement time: 6 min/plate
The test samples were evaluated by calculating the difference between the maximum and minimum values. EC50/IC50 values are calculated using the Graph Pad Prism software.
Preparation of the membrane potential loading buffer (membrane potential assay kit red (FMP), bulk format cat. No. R8123) according to the manufacturer's instructions:
10 ml of the 10× assay buffer (component B) were diluted with 90 ml of sterile water and then adjusted to pH 7.4 with 1.0N NaOH (1× assay buffer). One vessel with the FLIPR membrane potential assay component A was completely dissolved in 100 ml 1× assay buffer and thoroughly mixed for 10 minutes with a magnetic stirrer. 5 ml aliquots were then stored at −20° C. (storage shelf life ca. 2 weeks).
An agonistic action can be detected starting from a value of −40 (and below).

Assay [2] addresses T2, hKCNQ2/3 (stably transfected hKCNQ2/3 CHO-K1 cell line) (Homo sapiens, UniProt O43525+O43526).
T2 construct: expressed in transfected cells; host or cells: CHO-K1
The assay can be described thus: Voltage clamp (patch-clamp) measurements, current increase relative to retigabin. It is filed as cell-based. To be noted: test substance 10 μM at −40 mV; current increase standardized to retigabin (10 μM) effect. The procedure: II. Voltage Clamp Measurements
In order to confirm electrophysiologically a KCNQ2/3 agonistic action of the substances, patch-clamp measurements [see Hamill O P, Marty A, Neher E, Sakmann B, Sigworth F J: “Improved patch-clamp techniques for high-resolution current recording from cells and cell-free membrane patches”, Pflugers Arch. 1981 August; 391(2):85-100] were carried out in the voltage clamp mode on a stably transfected hKCNQ2/3 CHO-K1 cell line. After formation of the gigaseal the cells were first of all clamped at a holding potential of −60 mV. Depolarising voltage jumps were then applied up to a potential of +20 mV (increment: 20 mV, duration: 1 second), in order to confirm the functional expression of KCNQ2/3 typical currents. The substances were tested at a potential of −40 mV. The current increase induced by retigabin (10 μM) was first of all recorded on each cell at −40 mV as positive control. After completely washing out the retigabin effect (duration: 80 sec) the test substance (10 μM) was applied. The current increase induced by the test substance was standardized to the retigabin effect and stated as relative efficacy (see below).
Background: Patch clamp records ionic current or voltage across a cell membrane.

The structures appear in SMILES notation.

As to `FC(F)(F)c1ccc(CNc2noc3ccccc23)cc1` [Example 152, benzo[d]isoxazol-3-yl-(4-trifluoromethylbenzyl)-amine], the “FLIPR membrane potential fluorescence change (ΔF %, max minus min); negative values indicate KCNQ2/3 agonism” value in assay [1] is given as −49%. Further, in assay [2], the “Voltage clamp: relative efficacy with respect to retigabin [10 μM]” value (“Voltage clamp: relative efficacy” below) was 0.22.

Take `Cc1cc(C)cc(CNc2noc3cccc(N)c23)c1` [Example 174, N3-(3,5-dimethylbenzyl)-benzo[d]isoxazole-3,4-diamine]: the “FLIPR membrane potential fluorescence change (ΔF %, max minus min); negative values indicate KCNQ2/3 agonism” value in assay [1] is on record as −45.5%. Also, the “Voltage clamp: relative efficacy” value in assay [2] was determined as 0.8.

Consider `FC(F)(F)Sc1ccc(CNc2noc3ccccc23)cc1` [Example 160, benzo[d]isoxazol-3-yl-(4-trifluoromethylsulfanyl-benzyl)-amine], for which the “FLIPR membrane potential fluorescence change (ΔF %, max minus min); negative values indicate KCNQ2/3 agonism” value in assay [1] is −58%. In addition, in assay [2], the “Voltage clamp: relative efficacy” value is given as 0.45.

Regarding `COc1ccccc1NC(=S)Nc1noc2cccc(OC)c12` [Example 130, 1-(4-methoxybenzo[d]isoxazol-3-yl)-3-(2-methoxyphenyl)-thiourea], the “Voltage clamp: relative efficacy” value in assay [2] came to 0.2.

In the case of `CCCCc1ccc(CNc2noc3cccc(N)c23)cc1` [Example 175, N3-(4-butylbenzyl)-benzo[d]isoxazole-3,4-diamine], in assay [1], the “FLIPR membrane potential fluorescence change (ΔF %, max minus min); negative values indicate KCNQ2/3 agonism” value was −57.7%. In addition, the “Voltage clamp: relative efficacy” value in assay [2] is on record as 0.59.

Turning to `Fc1cc(C(F)(F)F)ccc1CNc1noc2ccccc12` [Example 163, benzo[d]isoxazol-3-yl-(2-fluoro-4-trifluoromethyl-benzyl)-amine], the “FLIPR membrane potential fluorescence change (ΔF %, max minus min); negative values indicate KCNQ2/3 agonism” value in assay [1] is recorded as −56%. The “Voltage clamp: relative efficacy” value in assay [2] is 1.29.

For `Fc1ccc2onc(NCc3ccc(OC(F)(F)F)cc3)c2c1` [Example 159, (5-fluorobenzo[d]isoxazol-3-yl)-(4-trifluoromethoxy-benzyl)-amine], the “FLIPR membrane potential fluorescence change (ΔF %, max minus min); negative values indicate KCNQ2/3 agonism” value in assay [1] was −41%. The “Voltage clamp: relative efficacy” value in assay [2] came out at 0.42.

`Cc1cc(CNc2noc3cc(F)ccc23)cc(C)c1OCc1ccccc1` [Example 170, (4-benzyloxy-3,5-dimethyl-benzyl)-(6-fluorobenzo[d]isoxazol-3-yl)-amine]: in assay [2], the “Voltage clamp: relative efficacy” value is 0.72.

In the case of `FC(F)(F)Sc1ccc(CNc2noc3ccc(Br)cc23)cc1` [Example 176, (5-bromobenzo[d]isoxazol-3-yl)-(4-trifluoromethyl-sulfanyl-benzyl)-amine], the “Voltage clamp: relative efficacy” value in assay [2] is on record as 0.62.

Consider `CC(Nc1noc2ccccc12)c1ccc(SC(F)(F)F)cc1` (stereo not shown) [Example 2, Benzo[d]isoxazol-3-yl-[1-(4-trifluoromethyl-sulfanylphenyl)-ethyl]-amine], for which, in assay [2], the “Voltage clamp: relative efficacy” value is reported as 0.37.

`Fc1ccc2onc(NCc3ccc(SC(F)(F)F)cc3)c2c1` [Example 162, (5-fluorobenzo[d]isoxazol-3-yl)-(4-trifluoromethyl-sulfanylbenzyl)-amine]: the “Voltage clamp: relative efficacy” value in assay [2] was found to be 0.79.

For `CC(Nc1noc2ccccc12)c1ccc(C(F)(F)F)cc1` (stereo not shown) [Example 1, Benzo[d]isoxazol-3-yl-[1-(4-trifluoro-methylphenyl)-ethyl]-amine], the “Voltage clamp: relative efficacy” value in assay [2] turned out to be 0.42.

Consider `FC(F)(F)Oc1ccc(CNc2noc3ccccc23)cc1` [Example 158, benzo[d]isoxazol-3-yl-(4-trifluoromethoxybenzyl)-amine], for which the “FLIPR membrane potential fluorescence change (ΔF %, max minus min); negative values indicate KCNQ2/3 agonism” value in assay [1] is −53%.

For `CC(C)CNC(=S)Nc1noc2cccc(N(C)C)c12` [Example 54, 1-(4-dimethylamino-benzo[d]isoxazol-3-yl)-3-isobutyl-thiourea], the “FLIPR membrane potential fluorescence change (ΔF %, max minus min); negative values indicate KCNQ2/3 agonism” value in assay [1] is listed as −64%.

Turning to `CCc1ccccc1NC(=S)Nc1noc2ccc(Br)cc12` [Example 100, 1-(5-bromobenzo[d]isoxazol-3-yl)-3-(2-ethylphenyl)-thiourea], the “FLIPR membrane potential fluorescence change (ΔF %, max minus min); negative values indicate KCNQ2/3 agonism” value in assay [1] is recorded as −42%.

Turning to `COc1ccc(CNc2noc3cc(F)ccc23)cc1Br` [Example 168, (3-bromo-4-methoxy-benzyl)-(6-fluorobenzo[d]-isoxazol-3-yl)-amine], the “Voltage clamp: relative efficacy” value in assay [2] came out at 0.35.

Take `Cc1cc(C)cc(NC(=S)Nc2noc3cccc(N(C)C)c23)c1` [Example 63, 1-(4-dimethylamino-benzo[d]isoxazol-3-yl)-3-(3,5-dimethylphenyl)-thiourea]: the “FLIPR membrane potential fluorescence change (ΔF %, max minus min); negative values indicate KCNQ2/3 agonism” value in assay [1] is on record as −56%.

Turning to `Cc1ccc2onc(NC(=S)Nc3ccccc3C(C)C)c2c1` [Example 95, 1-(2-isopropylphenyl)-3-(5-methyl-benzo[d]isoxazol-3-yl)-thiourea], the “FLIPR membrane potential fluorescence change (ΔF %, max minus min); negative values indicate KCNQ2/3 agonism” value in assay [1] was −64%.

Take `Cc1ccc(COc2cccc3onc(NC(=S)NC4CCCCC4)c23)cc1` [Example 90, 1-cyclohexyl-3-[4-(4-methylbenzyloxy)-benzo[d]isoxazol-3-yl]-thiourea]: the “FLIPR membrane potential fluorescence change (ΔF %, max minus min); negative values indicate KCNQ2/3 agonism” value in assay [1] is reported as −41.5%.

Regarding `COc1ccc(NC(=S)Nc2noc3cccc(OC)c23)c(OC)c1` [Example 134, 1-(2,4-dimethoxyphenyl)-3-(4-methoxybenzo[d]isoxazol-3-yl)-thiourea], the “FLIPR membrane potential fluorescence change (ΔF %, max minus min); negative values indicate KCNQ2/3 agonism” value in assay [1] is −42%.

In the case of `COc1cc(NC(=S)Nc2noc3cccc(OCC(F)(F)F)c23)cc(OC)c1OC` [Example 135, 1-[4-(2,2,2-trifluoroethoxy)-benzo[d]isoxazol-3-yl]-3-(3,4,5-trimethoxyphenyl)-thiourea], the “FLIPR membrane potential fluorescence change (ΔF %, max minus min); negative values indicate KCNQ2/3 agonism” value in assay [1] is listed as −47.5%.

Take `COC(=O)C(C)NC(=S)Nc1noc2ccc(F)cc12` (stereo not shown) [Example 97, 2-[3-(5-fluorobenzo(d]isoxazol-3-yl)-thioureido]-propionic acid methyl ester]: in assay [1], the “FLIPR membrane potential fluorescence change (ΔF %, max minus min); negative values indicate KCNQ2/3 agonism” value was −58.5%.

Consider `Cc1ccccc1NC(=S)Nc1noc2cccc(Cl)c12` [Example 51, 1-(4-chlorobenzo[d]isoxazol-3-yl)-3-o-tolyl-thiourea], for which, in assay [1], the “FLIPR membrane potential fluorescence change (ΔF %, max minus min); negative values indicate KCNQ2/3 agonism” value is −50%.

Regarding `N#Cc1cccc(NC(=S)Nc2noc3cc(F)ccc23)c1` [Example 112, 1-(3-cyanophenyl)-3-(6-fluoro-benzo[d]isoxazol-3-yl)-thiourea], in assay [2], the “Voltage clamp: relative efficacy” value is recorded as 0.3.

Take `COc1cccc2onc(NC(=S)NCc3ccc(Cl)cc3)c12` [Example 129, 1-(4-chlorobenzyl)-3-(4-methoxy-benzo[d)isoxazol-3-yl)-thiourea]: in assay [1], the “FLIPR membrane potential fluorescence change (ΔF %, max minus min); negative values indicate KCNQ2/3 agonism” value was −42%.
